According to patent US20110166066A1, “CATESTATIN (CST) AND ITS VARIANTS FOR TREATMENT OF CARDIOVASCULAR AND METABOLIC DISORDERS” (priority 2008, published 2011):
Like-named read-outs stand apart in the source and are kept apart here. No end group written: not given here.

Assays:
[1] = test system: EPCs; assay: Effects on EPCs in-vitro; format: cell-based
[2] = test system: AKT Ser473; assay: Immunoblot of phosphorylated Akt in WT-CST perfused hearts; parameters: species or system rat; conditions: 110 nM
Procedure: (§1) Cardiac signaling—Hearts were perfused with or without 110 nM WT-Cts as before. At the end of experiment hearts were snap frozen under liquid nitrogen and homogenized with 1 ml of ice cold 0.2 M sucrose, Tris maleate (pH 7.0) buffer supplemented with 2 mM EDTA, pH 8.0, 1 mM sodium orthovanadate, 10 mM sodium pyrophosphate, 1 mM phenylmethylsulfonyl fluoride, 10 μg/ml leupeptin, 10 μg/ml aprotinin and 0.1 mM 3-isobutyl-1-methylxanthine. SR membrane fractions were isolated from cytosolic proteins as described before (27). Protein content was determined by Bradford assay (BIO-RAD) and 100 μg of cytosolic protein was subjected to SDS-PAGE immunoblot analysis for phosphorylated-ERK, total ERK (P-ERK and T-ERK; Santa Cruz, Calif.). […]
(§2) Statistics—Data are expressed as the mean±SEM. Curve fitting was accomplished in the program Kaleidagraph (Synergy Software, Reading, Pa.). […] For analysis of phosphorylated proteins, levels were quantified using Bio-Rad QuantifyOne and volumes of phosphorylated proteins were divided by the levels of non-phosphorylated proteins to calculate fold activation. Stimulation of protein activity was expressed as fold increase over vehicle-treated control. The means and S.E.M. were calculated for each treatment. […]

[3] = test system: ERK1/2; assay: Immunoblot of phosphorylated ERK1/2 in WT-CST perfused hearts; parameters: species or system rat; conditions: 110 nM
Procedure: as §1, §2

[4] = test system: C57/BL/6J mice cornea; assay: Cornea neovascularisation assay; format: in vivo; conditions: pellet 500 ng, day 7
Procedure: Cornea Neovascularisation Assay. Pellets containing 500 ng Catestatin were implanted in C57/BL/6J mice (age of 8 weeks) as described (36). On postoperative day 7 mice received an intravenous injection of 500 μg BS1 lectin conjugated to FITC (Vector Laboratories). After euthanasia, enucleated eyes were fixed in 1% paraformaldehyde, corneas dissected and examined by fluorescence microscopy.

[5] = test system: C57BL/6 wild-type mice; assay: Mouse hind-limb ischemia model; format: in vivo; conditions: for Blood perfusion (LDPI), in words: 3 and 4 weeks after operation
Procedure: Mouse hind-limb ischemia model. Male C57BL/6 wild-type mice at the age of 12 months were subjected to unilateral hind-limb surgery. Briefly, the left femoral artery was exposed, ligated with 5-0 silk ligatures, and excised. Mice were injected with saline or 10 μg catestatin into thigh and calf muscles after operation and every other day for weeks 1 and 2 and 2 times per week for weeks 3 and 4. All further measurements and analyses were performed by investigators blinded to the treatment of the animals.
Blood flow measurement. Blood flow measurements were performed using a laser Doppler perfusion image (LDPI) analyzer (Moor Instruments, USA) as described. To minimize data variables attributable to ambient light and temperature animals were kept on a heating plate at 37° C. before measurement and blood perfusion is expressed as the LDPI index representing the ratio of left (=operated, ischemic leg) versus right (=not-operated, not-ischemic leg) limb blood flow. A ratio of 1 before operation indicates equal blood perfusion of both legs, whereas after femoral artery excision this ratio drops to 0.26, indicating severe attenuation of leg blood supply in the operated leg.
Alkaline phosphatase staining and Immunohistochemistry. For tissue staining, mice were sacrificed and ischemic limb tissues were retrieved after 4 weeks. Specimens were fixed in 10% (v/v) buffered formaldehyde, dehydrated with graded ethanol series and embedded in paraffin. Alternatively, fresh tissue was embedded in OCT compound (TISSUE-TEK®, Sakura Finetek) and snap-frozen in liquid nitrogen. Tissues were sliced into 5-μm sections. Vascular endothelial cells were identified by alkaline phosphatase staining and for assessment of artery/arteriole density sections were stained with a mouse monoclonal alpha-smooth muscle actin antibody (Pharmingen) as described (36). Adductor muscle samples of each leg were divided into 2 parts and capillaries (alkaline phosphatase positive) and arteries (alpha-smooth muscle actin positive) were counted in five sections of each part and are expressed as capillary and arteriole density per mm^2.

[6] = test system: WT and Chga knockout (KO) mice; assay: BP and HR by telemetry in immobilization stress, conscious mice; format: in vivo
Description: Animals. Chga knockout (KO) mice and their wild-type (WT) littermates were generated as described (13). All animals were housed on a 12 hr light dark cycle and fed a standard rodent chow. The Animal Care and Use Committee of University of California at San Diego approved all protocols for animal use and euthanasia in accordance with National Institute of Health guidelines. Both WT and KO mice (5-6 month old) in this study were from mixed (129 SvJ and C57BL/6) genetic background.
Conscious mice. Measurement of BP and HR in immobilization stress-induced telemetered mice: BP & HR were measured by telemetry as described previously (13). The experiments were initiated 10 days after the surgery. Immobilization stress was initiated by placing mice in restrainer (Braintree Scientific Inc, Braintree, Mass.) at 10:00 AM and kept for 2 hrs for continuous recording of BP and HR by telemetry followed by recovery from stress in home cages for 2 hrs. CST was injected (40 μg/g bw ip) 30 minutes before stress induction to explore the role of CST in stress response.

[7] = test system: Langendorff perfused rat heart; assay: Isoproterenol stimulated Langendorff heart preparations; conditions: ISO 0.1 nM to 1 μM; WT-CST 33 and 110 nM, G364S-CST 200 nM, P370L-CST 165 nM
[8] = test system: sympathochromaffin cells; conditions: in vitro, cited from earlier work

## SSMKLSFRARAYGFRGPGPQL [WT-CST, catestatin]
[1]
  Effects on EPCs (chemotaxis, incorporation into vascular structures): showed effects on EPCs
[2]
  Phosphorylation of AKT at Ser473: inhibited
[3]
  Phosphorylation of ERK1/2: inhibited
[4]
  Angiogenesis in the cornea: induced growth of arteries
[5]; listed as CST
  Blood perfusion (LDPI), in words: improved perfusion
[5]; listed as catestatin
  Blood perfusion (LDPI), in words: improved blood perfusion
[5]; 4 weeks
  Capillary density, in words: significantly increased capillary density
  Density of arteries/arterioles, in words: increases density of arteries/arterioles
[5]; 4 weeks after surgery
  Alpha-smooth muscle actin positive vessels: 7.5±0.5 vessels/mm^2
  Capillaries (alkaline phosphatase positive vessels): 356±17 capillaries/mm^2
[5]; 4 wks after induction of ischemia, 10 μg i.m.
  LDPI ratio: 0.94±0.03
[5]; after 3 weeks
  Perfusion ratios versus saline: significantly better
[6]; KO mice
  Heightened HR responses to stress: abolished
  SBP after 1 h of recovery from the stress: brought SBP to WT level
[6]; KO mice, 40 μg/g bw ip
  Basal SBP: decreased
  Stress-induced increments in SBP: attenuated
[6]; KO mice, stress and recovery
  HR AUC: 143340±1889
  SBP AUC: 26639±399
[6]; WT and KO mice
  Basal or stress-induced increments in DBP: no significant effect
[6]; WT mice
  Basal and stress-induced increase in HR: no effect
[6]; WT mice, 40 μg/g bw ip
  Basal SBP: no effect
[6]; WT mice, 40 μg/g bw ip 30 min before stress
  Attenuation of stress-induced increments in SBP: 7.1 mmHg
[7]
  ISO-induced stimulation of LVP (concentration-response): significantly inhibited
[8]; listed as wild-type (WT)
  Rank order of potency, inhibition of catecholamine secretion: Pro370Leu>wild-type (WT)>Gly364Ser>Arg374Gln
[8]; listed as wildtype (WT)
  Rank order of potency, inhibition of catecholamine secretion: Pro370Leu>wildtype (WT)>Gly364Ser>Arg374Gln
